Measured values as given in PubChem BioAssay AID743476 (The Scripps Research Institute Molecular Screening Center, 2014).
Active and inactive are the calls of the source. How the calls were made is not given here.

Test system: CCHF-vOTU
Experiment: PubChem AID 743476
Conditions: Recombinant CCHFV vOTU, PEP-AMC fluorescence cleavage, with PEP-AMC substrate, active compounds read high

## CCC(CNc1cc(OC)cc2cccnc12)NC1CCCCC1 (centres undefined)
Assay 1, at 6.32 µM
  inhibition: -27% (inactive)
Assay 2, at 6.32 µM
  inhibition: 13.6% (inactive)
Assay 3, at 12.64 µM
  inhibition: 52.4%

## CN(C1=C(NC(=O)c2ccccc2)C(=O)c2ccccc2C1=O)C1CCS(=O)(=O)C1 (centres undefined)
Assay 1, at 2.43 µM
  inhibition: 54.2%
Assay 2, at 2.43 µM
  inhibition: 22.7%

## O=C(O)CSc1cc(NS(=O)(=O)c2ccc(Cl)cc2)c2ccccc2c1O
Assay 1, at 5 µM
  inhibition: 6.76% (inactive)
Assay 2, at 5 µM
  inhibition: 8.14% (inactive)
Assay 3, at 10 µM
  inhibition: 7.8% (inactive)

## O=C(NC1=C(NC2CCS(=O)(=O)C2)C(=O)c2ccccc2C1=O)c1ccccc1 (centres undefined)
Assay 1, at 3.9 µM
  inhibition: 4.88% (inactive)
Assay 2, at 3.9 µM
  inhibition: 22.6%

## O=C1OC(Nc2cc(Br)cc3cccnc23)c2ccccc21 (centres undefined)
Assay 1, at 5.23 µM
  inhibition: 21.7%
Assay 2, at 5.23 µM
  inhibition: 16.9% (inactive)
Assay 3, at 10.46 µM
  inhibition: 10.9% (inactive)

## COC(CNC(=O)c1ccc2c3c(onc13)-c1ccccc1C2=O)OC
Assay 1, at 3.49 µM
  inhibition: 16.6% (inactive)
Assay 2, at 3.49 µM
  inhibition: 12.4% (inactive)
Assay 3, at 6.98 µM
  inhibition: 35.5%

## Cc1ccc(NC2=CC(=O)C(=O)c3ccccc32)cc1
Assay 1, at 7.14 µM
  inhibition: 20%
Assay 2, at 7.14 µM
  inhibition: 51.9%

## O=C(COC(=O)c1ccc([N+](=O)[O-])s1)Nc1ncc(C(F)(F)F)cc1Cl
Assay 1, at 8.84 µM
  inhibition: 23.2%
Assay 2, at 8.84 µM
  inhibition: 19.8% (inactive)
Assay 3, at 17.68 µM
  inhibition: 30.5%

## O=C(NC1=CC(=O)c2ccccc2C1=O)c1ccccc1
Assay 1, at 3.85 µM
  inhibition: 5.25% (inactive)
Assay 2, at 3.85 µM
  inhibition: 9.67% (inactive)
Assay 3, at 7.7 µM
  inhibition: 16.4% (inactive)

## COc1cc(Br)c(C(=O)c2nccc3cc(OC)c(OC)cc23)cc1OC
Assay 1, at 0.27 µM
  inhibition: 31.9%
Assay 2, at 0.27 µM
  inhibition: 25.2%

## COc1cc(C(=O)c2nccc3cc(OC)c(OC)cc23)c([N+](=O)[O-])cc1OC
Assay 1, at 1.05 µM
  inhibition: 6.05% (inactive)
Assay 2, at 1.05 µM
  inhibition: 15% (inactive)
Assay 3, at 2.1 µM
  inhibition: 17.8% (inactive)

## CCn1nc(/C=C/c2ccccc2)nc2c(=O)n(C)c(=O)nc1-2
Assay 1, at 0.28 µM
  inhibition: 58.4%
Assay 2, at 0.28 µM
  inhibition: 91.9%

## O=C1Cc2ccccc2C(=O)N1
Assay 1, at 0.4 µM
  inhibition: 38.8%
Assay 2, at 0.4 µM
  inhibition: 54.3%

## CCOC(=O)C1=C(COC(=O)c2ccc([N+](=O)[O-])s2)NC(=O)NC1C (centres undefined)
Assay 1, at 7.84 µM
  inhibition: 5.42% (inactive)
Assay 2, at 7.84 µM
  inhibition: 9.9% (inactive)
Assay 3, at 15.68 µM
  inhibition: 6% (inactive)

## O=C1C=C(Nc2ccccc2)c2ccccc2C1=O
Assay 1, at 6.87 µM
  inhibition: 22.4%
Assay 2, at 6.87 µM
  inhibition: 52.9%

## CC(=O)c1ccc(NC(=S)Nc2cccc3cnccc23)cc1
Assay 1, at 6.84 µM
  inhibition: 0.13% (inactive)
Assay 2, at 6.84 µM
  inhibition: 3.01% (inactive)
Assay 3, at 13.68 µM
  inhibition: 6.6% (inactive)

## O=C(c1ccco1)[C@@H]1[C@@H]2C(=O)N(c3ccc(Br)cc3)C(=O)[C@@H]2C2c3ccccc3C=CN21 (some centres undefined)
Assay 1, at 5.26 µM
  inhibition: -13.1% (inactive)
Assay 2, at 5.26 µM
  inhibition: 37.6%

## CC1COCC(C)N1C1=C(Cl)C(=O)c2ccccc2C1=O (centres undefined)
Assay 1, at 5.07 µM
  inhibition: 0.67% (inactive)
Assay 2, at 5.07 µM
  inhibition: 14% (inactive)
Assay 3, at 10.14 µM
  inhibition: 17.6% (inactive)

## CC1(C)C=C2C(=NN(c3ccccc3)C(N)=C2C#N)CO1
Assay 1, at 1.83 µM
  inhibition: -4.71% (inactive)
Assay 2, at 1.83 µM
  inhibition: 23.4%

## S=C(Nc1ccc(Cl)cc1)Nc1cccc2cnccc12
Assay 1, at 6.44 µM
  inhibition: -17.9% (inactive)
Assay 2, at 6.44 µM
  inhibition: 5.81% (inactive)
Assay 3, at 12.88 µM
  inhibition: 7.7% (inactive)

## CCc1cc[n+](C2=C(NS(=O)(=O)c3cccs3)C(=O)c3ccccc3C2=O)cc1
Assay 1, at 4.39 µM
  inhibition: 13.7% (inactive)
Assay 2, at 4.39 µM
  inhibition: 18.6% (inactive)
Assay 3, at 8.78 µM
  inhibition: 37.9%

## Cc1ccc(N2C(=O)[C@@H]3[C@H](C2=O)C2c4ccccc4C=CN2[C@@H]3C(=O)c2ccco2)cc1 (some centres undefined)
Assay 1, at 4.21 µM
  inhibition: 8.15% (inactive)
Assay 2, at 4.21 µM
  inhibition: 18.6% (inactive)
Assay 3, at 8.42 µM
  inhibition: 44.7%

## COC1=C(N)C(=O)c2nc(C)ccc2C1=O
Assay 1, at 1.37 µM
  inhibition: 16.7% (inactive)
Assay 2, at 1.37 µM
  inhibition: 50.9%
